Each structure is given as a SMILES string. ≈ marks a conversion by molar mass, not a printed value.

6 compounds from patent US9499509B2, “Dihydrochalcone derivatives and their use as antibiotic agents” (UNIVERSITÉ DU QUÉBEC À CHICOUTIMI, priority 2012, dated 2016) can be followed below.

The subject of one data set is WS-1 cell lines. Put plainly: Cytotoxicity assay on WS-1 (Example 2). The following applies: Table 7; WS-1, 48 h. The class given is cell-based. Details: unit not given here. The protocol:
Cytotoxicity assay. […] The WS-1 cell lines were provided by ATCC. […] The compounds tested were then added at 8 different concentrations. […] In Table 7, the therapeutic indexes of compounds IV to XXI are presented.

The subject of data set [1] is S. aureus wild type strain (ATCC 25923). Put plainly: Antibiotic assay (absorption 660 nm, Example 2), S. aureus wild type. The conditions noted are these: for MIC: S. aureus WT (ATCC 25923); for S. aureus WT ATCC 25923 (toxicity on bacteria): Table 7, same values as MIC of Table 6. In kind it is cell-based, Staphylococcus aureus. The protocol:
(§1) Antibiotic agents. Gentamicin sulfate was provided by Calbiochem. Chloramphenicol was provided by Sigma-Aldrich.
(§2) Antibiotic assay. […] The bacteria strains were inoculated in nutrients broth. […] All bacteria were plated in nutrients broth at a concentration of 450 000 bacteria/m L.
(§3) Compounds IV to XXI were diluted in dimethylsulfoxide. […] The compounds were tested at 8 different concentrations.
(§4) Each well contained: 100 μL of bacteria, 100 μL of the compounds tested. The plates were incubated at 37° C. for 6 h. The absorption was read using a Varioskan flash multimode Reader™ (Thermo Scientific) at 660 nm.
(§5) MRSA. Ten (10) strains of MRSA obtained as described above were tested along with an S. aureus wild type (WT) strain (ATCC 25923).

A further data set concerns MRSA strains. Put plainly: Antibiotic assay (absorption 660 nm, Example 2), MRSA strains. In kind it is cell-based, Staphylococcus aureus. The method, then: as §1, §2, §3, §4, §5

As usually defined, the MIC is the lowest concentration found to suppress growth. As to `COc1cc(O)c(C(=O)CCc2ccc(O)cc2)c2c1CCC(c1ccc(O)cc1)O2` (racemic) [X], the “WS-1 (toxicity on normal cells, fibroblast)” value in the data set with WS-1 cell lines is recorded as 16 ± 4. For the same compound, the MIC in data set [1] turned out to be 5.3 ± 0.6 µM (≈ 2.23 µg/mL); against MRSA strains (MRSA 1), 5.2 ± 0.4 µM (≈ 2.19 µg/mL); in the data set on MRSA strains (MRSA 2), 5.7 ± 0.4 µM (≈ 2.4 µg/mL); with MRSA strains (MRSA 3), 4 µM (≈ 1.68 µg/mL); in the data set with MRSA strains (MRSA 4) it was 3 µM (≈ 1.26 µg/mL); against MRSA strains (MRSA 5), 4 ± 2 µM (≈ 1.68 µg/mL). In addition, the minimum inhibitory concentration (MIC) came to 9 ± 1 µM (≈ 3.78 µg/mL) against MRSA strains (MRSA 6), 5.3 ± 0.2 µM (≈ 2.23 µg/mL) with MRSA strains (MRSA 7), 5.3 ± 0.4 µM (≈ 2.23 µg/mL) with MRSA strains (MRSA 9) and 5.6 ± 0.5 µM (≈ 2.35 µg/mL) in the data set on MRSA strains (MRSA 10). Further, the “S. aureus WT ATCC 25923 (toxicity on bacteria)” value in data set [1] amounted to 5.3 ± 0.6.

For `COc1ccc(CCC(=O)c2c(O)cc(O)c3c2O[C@@H](c2ccc(O)cc2)CC3)cc1` [IX], in the data set with WS-1 cell lines, the “WS-1 (toxicity on normal cells, fibroblast)” value was >50. The minimal inhibitory concentration (MIC) in data set [1] stood at 8.0 ± 0.3 µM (≈ 3.36 µg/mL); against MRSA strains (MRSA 1), 7.7 ± 0.3 µM (≈ 3.24 µg/mL); in the data set on MRSA strains (MRSA 2), 9 ± 1 µM (≈ 3.78 µg/mL); with MRSA strains (MRSA 3), 6.25 ± 0.06 µM (≈ 2.63 µg/mL); in the data set on MRSA strains (MRSA 4), 6.7 ± 0.2 µM (≈ 2.82 µg/mL); against MRSA strains (MRSA 5), 6.9 ± 0.4 µM (≈ 2.9 µg/mL). Also, the minimum inhibitory concentration (MIC) with MRSA strains (MRSA 6) is 7.1 ± 0.9 µM (≈ 2.99 µg/mL); with MRSA strains (MRSA 7) it was 5.2 ± 0.4 µM (≈ 2.19 µg/mL); in the data set on MRSA strains (MRSA 8), 4.9 ± 0.2 µM (≈ 2.06 µg/mL); in the data set with MRSA strains (MRSA 9), 3.7 ± 0.2 µM (≈ 1.56 µg/mL); against MRSA strains (MRSA 10), 7.5 ± 0.7 µM (≈ 3.15 µg/mL). Also, the “S. aureus WT ATCC 25923 (toxicity on bacteria)” value in data set [1] was found to be 8.0 ± 0.3.

Turning to `COc1ccc(CCC(=O)c2c(O)cc(O)c3c2O[C@H](c2ccc(O)cc2)CC3)cc1` [VIII], the “WS-1 (toxicity on normal cells, fibroblast)” value with WS-1 cell lines was >50. The minimum inhibitory concentration (MIC) (in data set [1]; against MRSA strains (MRSA 1); in the data set on MRSA strains (MRSA 2); against MRSA strains (MRSA 3); against MRSA strains (MRSA 4); against MRSA strains (MRSA 5)) was >50 µM throughout. Also, the MIC against MRSA strains (MRSA 6), against MRSA strains (MRSA 7), in the data set on MRSA strains (MRSA 8), with MRSA strains (MRSA 9) and in the data set with MRSA strains (MRSA 10) was >50 µM throughout. Moreover, in data set [1], the “S. aureus WT ATCC 25923 (toxicity on bacteria)” value is reported as >50.

Take `O=C(CCc1ccccc1)c1c(O)cc(O)c2c1O[C@@H](c1ccc(O)cc1)CC2` [VI]: in the data set on WS-1 cell lines, the “WS-1 (toxicity on normal cells, fibroblast)” value was >50. For the same compound, the MIC in data set [1] stood at 2.7 ± 0.3 µM (≈ 1.05 µg/mL); against MRSA strains (MRSA 1) it was 3.5 ± 0.1 µM (≈ 1.37 µg/mL); in the data set on MRSA strains (MRSA 2) it was 2.9 ± 0.2 µM (≈ 1.13 µg/mL); in the data set on MRSA strains (MRSA 3), 3.8 ± 0.3 µM (≈ 1.48 µg/mL); against MRSA strains (MRSA 4), 5.2 ± 0.4 µM (≈ 2.03 µg/mL); in the data set on MRSA strains (MRSA 5), 4.9 ± 0.6 µM (≈ 1.91 µg/mL). Also, the MIC with MRSA strains (MRSA 6) amounted to 14.2 ± 0.9 µM (≈ 5.54 µg/mL); with MRSA strains (MRSA 7) it was 3.4 ± 0.2 µM (≈ 1.33 µg/mL); with MRSA strains (MRSA 8), 3.8 ± 0.3 µM (≈ 1.48 µg/mL); in the data set on MRSA strains (MRSA 9), 4.7 ± 0.2 µM (≈ 1.84 µg/mL); against MRSA strains (MRSA 10), 4.65 ± 0.06 µM (≈ 1.82 µg/mL). For the same compound, in data set [1], the “S. aureus WT ATCC 25923 (toxicity on bacteria)” value came to 2.7 ± 0.3.

Consider `O=C(CCc1ccccc1)c1c(O)cc(O)c2c1O[C@H](c1ccc(O)cc1)CC2` [V], for which the “WS-1 (toxicity on normal cells, fibroblast)” value in the data set with WS-1 cell lines was >50. For the same compound, the minimum inhibitory concentration (MIC) in data set [1] was determined as 2.5 ± 0.2 µM (≈ 0.976 µg/mL); in the data set with MRSA strains (MRSA 1), 4.1 ± 0.1 µM (≈ 1.6 µg/mL); in the data set on MRSA strains (MRSA 2), 2.58 ± 0.10 µM (≈ 1.01 µg/mL); against MRSA strains (MRSA 3), 3.8 ± 0.2 µM (≈ 1.48 µg/mL); in the data set on MRSA strains (MRSA 4), 4.7 ± 0.4 µM (≈ 1.84 µg/mL); with MRSA strains (MRSA 5), 4.4 ± 0.1 µM (≈ 1.72 µg/mL). The minimal inhibitory concentration (MIC) against MRSA strains (MRSA 6) amounted to 6.9 ± 0.4 µM (≈ 2.69 µg/mL); against MRSA strains (MRSA 7), 3.0 ± 0.2 µM (≈ 1.17 µg/mL); in the data set on MRSA strains (MRSA 8) it was 3.8 ± 0.4 µM (≈ 1.48 µg/mL); with MRSA strains (MRSA 9), 6.2 ± 0.4 µM (≈ 2.42 µg/mL); in the data set with MRSA strains (MRSA 10) it was 5.0 ± 0.3 µM (≈ 1.95 µg/mL). Moreover, the “S. aureus WT ATCC 25923 (toxicity on bacteria)” value in data set [1] was 2.5 ± 0.2.

On to `COc1cc(O)c(C(=O)CCc2ccc(O)cc2)c2c1CC[C@H](c1ccc(O)cc1)O2` [XII], for which the “WS-1 (toxicity on normal cells, fibroblast)” value in the data set on WS-1 cell lines is >50. The minimum inhibitory concentration (MIC) came out at 0.58 ± 0.02 µM (≈ 0.244 µg/mL) in data set [1]; 0.55 ± 0.07 µM (≈ 0.231 µg/mL) in the data set on MRSA strains (MRSA 1); 0.65 ± 0.03 µM (≈ 0.273 µg/mL) with MRSA strains (MRSA 2); 1.10 ± 0.07 µM (≈ 0.463 µg/mL) against MRSA strains (MRSA 3); 0.64 ± 0.02 µM (≈ 0.269 µg/mL) in the data set on MRSA strains (MRSA 4); 0.60 ± 0.01 µM (≈ 0.252 µg/mL) in the data set with MRSA strains (MRSA 5). The minimum inhibitory concentration (MIC) with MRSA strains (MRSA 6) stood at 0.76 ± 0.04 µM (≈ 0.32 µg/mL); against MRSA strains (MRSA 7), 0.57 ± 0.06 µM (≈ 0.24 µg/mL); in the data set with MRSA strains (MRSA 8), 0.641 ± 0.01 µM (≈ 0.27 µg/mL); against MRSA strains (MRSA 9) it was 0.86 ± 0.03 µM (≈ 0.362 µg/mL); with MRSA strains (MRSA 10) it was 0.7 ± 0.1 µM (≈ 0.294 µg/mL). In data set [1], the “S. aureus WT ATCC 25923 (toxicity on bacteria)” value turned out to be 0.58 ± 0.02.
